Patent US12213970B2, “Pyridinyl sulfonamide derivatives, pharmaceutical compositions and uses thereof” (Boehringer Ingelheim International GmbH, priority 2018, dated 2025)
Counter-ions that a name gives are not always drawn. Like-named read-outs stand apart in the source and are kept apart here.

Columns and labels:
[1] = molecular target: T1, human AOC3 enzyme (recombinant CHO cells) (Homo sapiens, UniProt Q16853); experiment: AOC3 biochemical assay (MAO-Glo), human enzyme
T1 construct: expressed in transfected cells; host or cells: CHO cells
T1 sequence (Q16853 1-763): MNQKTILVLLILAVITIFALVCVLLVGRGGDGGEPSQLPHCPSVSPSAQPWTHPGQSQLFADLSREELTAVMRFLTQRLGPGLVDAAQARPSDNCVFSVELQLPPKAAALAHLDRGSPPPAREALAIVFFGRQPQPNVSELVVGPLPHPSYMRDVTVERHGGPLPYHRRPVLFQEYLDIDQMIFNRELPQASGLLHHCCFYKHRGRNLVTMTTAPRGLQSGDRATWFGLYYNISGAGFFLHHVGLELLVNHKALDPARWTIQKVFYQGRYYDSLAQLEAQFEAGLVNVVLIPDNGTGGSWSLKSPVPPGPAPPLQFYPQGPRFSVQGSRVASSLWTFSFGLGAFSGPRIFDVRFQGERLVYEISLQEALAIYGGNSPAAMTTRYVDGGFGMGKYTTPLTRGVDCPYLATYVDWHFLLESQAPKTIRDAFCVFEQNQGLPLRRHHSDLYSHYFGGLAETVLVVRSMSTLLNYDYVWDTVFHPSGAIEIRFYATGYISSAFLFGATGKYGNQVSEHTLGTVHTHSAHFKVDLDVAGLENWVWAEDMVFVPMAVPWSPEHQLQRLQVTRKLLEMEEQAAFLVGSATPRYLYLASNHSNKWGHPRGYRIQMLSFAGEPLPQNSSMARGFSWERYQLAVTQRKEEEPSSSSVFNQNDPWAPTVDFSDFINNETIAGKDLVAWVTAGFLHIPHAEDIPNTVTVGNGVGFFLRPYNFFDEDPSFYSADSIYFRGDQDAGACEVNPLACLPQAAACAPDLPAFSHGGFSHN
Text: (§1) The MAO-Glo™ Assay (commercially available from PROMEGA, #V1402) provides a sensitive method for the measurement of monoamine oxidase (MAO) activity (Valley, M. P. et al., 2006, Anal. Biochem. 359: 238-246) from a variety of tissues, biofluids or recombinant expressed or purified enzymes. As substrate a derivate of the beetle luciferin ((4S)-4,5-dihydro-2-(6-hydroxybenzothiazolyl)-4-thiazole-carboxylic acid) is used, which is oxidized at a primary amine moiety. After a spontaneous elimination and a catalyzed esterase reaction, the turnover of luciferin by the luciferase is recorded as a signal of AOC3 activity.
An aliquot of 3 μL of the compound dilution is added to a 384 well plate (Optiplate, PS, flat bottom, white, PERKIN ELMER, #6007290) with a final DMSO concentration of 6.6%. Recombinant CHO cells, overexpressing the human (1500 cells/well), mouse (1000 cells/well) or rat (500 cells/well) AOC3 enzyme are diluted in reaction buffer and added in a volume of 15 μL to the wells. After incubation for 20 minutes at 37° C., 2 μL of MAO substrate (dissolved in DMSO at 16 mM, adjusted to assay concentration in reaction buffer to a final assay concentration of 20 μM) is added and further incubated for 60 minutes at 37° C. The turnover of the substrate is determined by the addition of 20 μL of the detection-mix which was generated by the addition of reconstitution buffer with esterase (PROMEGA, #V1402) to the luciferin detection reagent (PROMEGA, #V1402). After an incubation period of 20 minutes, the luminescent signal is measured with Envision 2104 Multilabel Reader (PERKIN ELMER).

MAO-A = molecular target: T2, MAO-A (Homo sapiens, UniProt P21397); experiment: MAO-A biochemical assay (MAO-Glo)
T2 construct: purchased Sigma-Aldrich M7316
T2 sequence (P21397 1-527): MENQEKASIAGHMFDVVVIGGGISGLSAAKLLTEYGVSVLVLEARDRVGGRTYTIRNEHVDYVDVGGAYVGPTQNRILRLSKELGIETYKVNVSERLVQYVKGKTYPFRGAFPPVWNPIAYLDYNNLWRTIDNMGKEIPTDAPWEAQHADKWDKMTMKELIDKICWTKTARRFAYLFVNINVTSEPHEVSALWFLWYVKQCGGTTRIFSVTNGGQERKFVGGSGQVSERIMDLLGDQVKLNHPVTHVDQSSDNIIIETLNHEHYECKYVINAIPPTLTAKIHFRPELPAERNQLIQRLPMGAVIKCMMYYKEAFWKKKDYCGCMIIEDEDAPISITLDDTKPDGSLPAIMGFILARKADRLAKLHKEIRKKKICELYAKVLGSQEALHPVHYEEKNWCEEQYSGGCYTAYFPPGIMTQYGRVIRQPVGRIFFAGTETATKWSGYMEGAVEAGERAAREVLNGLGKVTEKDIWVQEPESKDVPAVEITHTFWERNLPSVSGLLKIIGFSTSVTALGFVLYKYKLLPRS
Text: as §1, with “MAO-A” for “AOC3”
An aliquot of 3 μL of the compound dilution is added to a 384 well plate (Optiplate, PS, flat bottom F, black, PERKIN ELMER, #6007270) in a DMSO concentration of 1.025%.
A MAO-A enzyme aliquot (M7316, Sigma-Aldrich) is thawed on ice, diluted in reaction buffer to 1.25 mU/μL and added in a volume of 5 μL to the wells. After incubation for 20 minutes at 37° C., 2 μL of MAO substrate (dissolved in DMSO at 16 mM, diluted to 20 μM in assay buffer to obtain a final assay concentration of 4 μM) is added, mixed, and the mixture further incubated for 60 minutes at 37° C.
The turnover of the substrate is determined by the addition of 10 μL of the Detection Reagent mix which was generated by the addition of reconstitution buffer with esterase (PROMEGA, #V1402) to the luciferin detection reagent (PROMEGA, #V1402). After an incubation period of 20 minutes at 37° C., the luminescent signal is measured with a […], e.g. Envision 2104 Multilabel Reader (PERKIN ELMER).

[2] = comparison table, read-out: IC50 AOC3
[3] = comparison table, read-out: IC50 MAO-A

Row | IC50 ([1]; read-out: AOC3 IC50) | IC50 (MAO-A; IC50, read-out: MAO-A) | IC50 [1, 2] | IC50 (MAO-A; [3]) | IC50 (MAO-A; read-out: IC50 MAO-A) | Compound
1 | 0.01 µM | > 50 µM | – | – | – | CC1(O)CCN(S(=O)(=O)c2ccc(OC/C(=C\F)CN)nc2)CC1 [Example 41]
2 | 0.003 µM | > 50 µM | – | – | – | COC(=O)[C@H]1[C@@H]2CN(S(=O)(=O)c3ccc(OC/C(=C\F)CN)nc3)C[C@@H]21 [Example 35, trans-3-[6-((Z)-2-Aminomethyl-3-fluoro-allyloxy)-pyridine-3-sulfonyl]-3-aza-bicyclo[3.1.0]hexane-6-carboxylic acid methyl ester trifluoroacetate]
3 | – | – | 0.003 µM | 2.35 µM | – | COC1CN(S(=O)(=O)c2ccc(OC/C(=C\F)CN)cc2)C1 [Reference compound A, reference compound]
4 | 0.088 µM | > 50 µM | – | – | – | NC/C(=C/F)COc1ccc(S(=O)(=O)N2CCC(C(=O)N3CCOCC3)CC2)cn1 [Example 3]
5 | 0.008 µM | > 50 µM | – | – | – | CC1(C(N)=O)CCN(S(=O)(=O)c2ccc(OC/C(=C\F)CN)nc2)CC1 [Example 49]
6 | 0.008 µM | 29.6 µM | – | – | – | NC/C(=C/F)COc1ccc(S(=O)(=O)N2CCC(CC(N)=O)CC2)cn1 [Example 50]
7 | 0.004 µM | 38.6 µM | – | – | – | COC(=O)CC1CCN(S(=O)(=O)c2ccc(OC/C(=C\F)CN)nc2)CC1 [Example 32]
8 | 0.05 µM | > 50 µM | – | – | – | NC/C(=C/F)COc1ccc(S(=O)(=O)N2CCC[C@@H]2C(N)=O)cn1 [Example 18]
9 | 0.004 µM | 13.5 µM | – | – | – | COC(=O)C1(C)CCN(S(=O)(=O)c2ccc(OC/C(=C\F)CN)nc2)CC1 [Example 36]
10 | 0.013 µM | > 50 µM | – | – | – | CN(C)C(=O)C1CN(S(=O)(=O)c2ccc(OC/C(=C\F)CN)nc2)C1 [Example 25]
11 | 0.003 µM | 32.3 µM | – | – | – | NC/C(=C/F)COc1ccc(S(=O)(=O)N2CCCCC2)cn1 [Example 38]
12 | 0.006 µM | > 50 µM | – | – | – | NC/C(=C/F)COc1ccc(S(=O)(=O)N2CC[C@H](C(N)=O)C2)cn1 [Example 39]
13 | 0.009 µM | 12.8 µM | – | – | – | CC1(O)CN(S(=O)(=O)c2ccc(OC/C(=C\F)CN)nc2)C1 [Example 16]
14 | 0.004 µM | > 50 µM | – | – | – | NC/C(=C/F)COc1ccc(S(=O)(=O)N2CC[C@@H](C(N)=O)C2)cn1 [Example 31]
15 | 0.012 µM | 20.1 µM | – | – | – | CC(F)(F)CNC(=O)CC1CCN(S(=O)(=O)c2ccc(OC/C(=C\F)CN)nc2)CC1 [Example 51]
16 | 0.015 µM | > 50 µM | – | – | – | CC(=O)NC1CCN(S(=O)(=O)c2ccc(OC/C(=C\F)CN)nc2)C1 (centres unmarked) [Example 12]
17 | 0.008 µM | > 50 µM | – | – | – | CNC(=O)[C@@]12C[C@@H]1CN(S(=O)(=O)c1ccc(OC/C(=C\F)CN)nc1)C2 [Example 29]
18 | 0.015 µM | > 50 µM | – | – | – | CC(=O)N1CC(C2CCN(S(=O)(=O)c3ccc(OC/C(=C\F)CN)nc3)CC2)C1 [Example 9]

Row | IC50 ([1]; read-out: AOC3 IC50) | IC50 (MAO-A; IC50, read-out: MAO-A) | IC50 [1, 2] | IC50 (MAO-A; [3]) | IC50 (MAO-A; read-out: IC50 MAO-A) | Compound
19 | 0.493 µM | > 50 µM | – | – | – | NC/C(=C/F)COc1ccc(S(=O)(=O)N2CCC(C(=O)O)CC2)cn1 [Example 46]
20 | 0.048 µM | > 50 µM | – | – | – | CNC(=O)[C@@H]1CCCN1S(=O)(=O)c1ccc(OC/C(=C\F)CN)nc1 [Example 8]
21 | – | – | 0.002 µM | – | 7.41 µM | CN(C)S(=O)(=O)c1ccc(OC/C(=C\F)CN)cc1 [Compound 10 of WO 2013/163675, reference compound]
22 | 0.005 µM | > 50 µM | – | – | – | CNC(=O)[C@H]1[C@@H]2CN(S(=O)(=O)c3ccc(OC/C(=C\F)CN)nc3)C[C@@H]21 [Example 27]
23 | – | > 50 µM | – | – | – | CNC(=O)[C@@H]1CCN(S(=O)(=O)c2ccc(OC/C(=C\F)CN)nc2)C1 [Example 14]
24 | 0.11 µM | > 50 µM | – | – | – | NC/C(=C/F)COc1ccc(S(=O)(=O)N2CCC(CC(=O)O)CC2)cn1 [Example 44, trifluoroacetate]
25 | 0.028 µM | > 50 µM | – | – | – | CCNC(=O)C1(C)CCN(S(=O)(=O)c2ccc(OC/C(=C\F)CN)nc2)CC1 [Example 23]
26 | 0.006 µM | > 50 µM | – | – | – | NC/C(=C/F)COc1ccc(S(=O)(=O)N2CC(C(N)=O)C2)cn1 [Example 20]
27 | 0.04 µM | > 50 µM | – | – | – | CC(C)(O)CNC(=O)[C@H]1CCN(S(=O)(=O)c2ccc(OC/C(=C\F)CN)nc2)C1 [Example 2]
28 | 0.003 µM | 40.5 µM | – | 40.5 µM | – | COC1CN(S(=O)(=O)c2ccc(OC/C(=C\F)CN)nc2)C1 [Example 33]
29 | – | – | 0.006 µM | 7.25 µM | – | NC/C(=C/F)COc1ccc(S(=O)(=O)N2CC[C@H](O)C2)cc1 [Reference compound B, reference compound]
30 | 0.01 µM | 49.1 µM | – | 49.1 µM | – | NC/C(=C/F)COc1ccc(S(=O)(=O)N2CC[C@H](O)C2)cn1 [Example 43, (S)-1-[6-(Z)-2-Aminomethyl-3-fluoro-allyloxy]-pyridine-3-sulfonyl]-pyrrolidin-3-ol trifluoroacetate]
31 | 0.017 µM | > 50 µM | – | – | – | CC1(C(=O)NCCF)CCN(S(=O)(=O)c2ccc(OC/C(=C\F)CN)nc2)CC1 [Example 53]
32 | 0.007 µM | > 50 µM | – | – | – | CN1CCN(C2CCN(S(=O)(=O)c3ccc(OC/C(=C\F)CN)nc3)CC2)C1=O [Example 1, 1-{1-[6-((Z)-2-Aminomethyl-3-fluoro-allyloxy)-pyridine-3-sulfonyl]-piperidine-4-yl}-3-methyl-imidazolidin-2-one trifluoroacetate]
33 | – | > 50 µM | – | – | – | CC(=O)N[C@H]1CCCN(S(=O)(=O)c2ccc(OC/C(=C\F)CN)nc2)C1 [Example 6]
34 | – | > 50 µM | – | – | – | CNC(=O)[C@H]1CCN(S(=O)(=O)c2ccc(OC/C(=C\F)CN)nc2)C1 [Example 11]
35 | – | > 50 µM | – | – | – | CC(=O)N[C@@H]1CCCN(S(=O)(=O)c2ccc(OC/C(=C\F)CN)nc2)C1 [Example 24]
